Test results taken from PubChem BioAssay AID248 (DTP/NCI, 2004).
“And” between values parts separate entries of the source, which are not always exact repeats. Identical values can stand only once. Inconclusive results and toxic doses are left out.

Tested on: L1210 leukemia ip in BDF1 mice, survival T/C
Experiment: NCI In Vivo Anticancer Drug Screen. Data for tumor model L1210 Leukemia (intraperitoneal) in B6D2F1 (BDF1) mice
Details: endpoint: mean survival time, higher = longer survival
How it was run: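 Ratio derived from survival: compound-dosed mice over vehicle-dosed mice, all bearing a transplantable tumor.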

[1] = dose: 100.0 mg/kg/injection, schedule: Q01DX009 (ip), vehicle: Klucel (hydroxypropylcellulose) (HPC)
[2] = dose: 100.0 mg/kg/injection, schedule: Q04DX003 (ip), vehicle: Klucel (hydroxypropylcellulose) (HPC)
[3] = dose: 200.0 mg/kg/injection, schedule: Q01DX009 (ip), vehicle: Klucel (hydroxypropylcellulose) (HPC)
[4] = dose: 200.0 mg/kg/injection, schedule: Q04DX003 (ip), vehicle: Klucel (hydroxypropylcellulose) (HPC)
[5] = dose: 400.0 mg/kg/injection, schedule: Q01DX009 (ip), vehicle: Klucel (hydroxypropylcellulose) (HPC)
[6] = dose: 400.0 mg/kg/injection, schedule: Q04DX003 (ip), vehicle: Klucel (hydroxypropylcellulose) (HPC)

O=C1C=C/C(=N/S(=O)(=O)c2ccccc2)c2ccccc21
T/C (dose: 6.0 mg/kg/injection, schedule: Q01DX009 (ip), vehicle: DMSO): 106 % of control
T/C (dose: 12.0 mg/kg/injection, schedule: Q01DX009 (ip), vehicle: DMSO): 88 % of control
T/C (dose: 25.0 mg/kg/injection, schedule: Q01DX009 (ip), vehicle: DMSO): 86 % of control
T/C (dose: 25.0 mg/kg/injection, schedule: Q04DX003 (ip), vehicle: DMSO): 94 % of control
T/C (dose: 50.0 mg/kg/injection, schedule: Q04DX003 (ip), vehicle: DMSO): 89 % of control
T/C (dose: 100.0 mg/kg/injection, schedule: Q04DX003 (ip), vehicle: DMSO): 106 % of control and 88 % of control

O=C1C(N2CCCC2)=C(N2CC2)C(=O)C(N2CCCC2)=C1N1CC1
T/C (dose: 0.25 mg/kg/injection, schedule: Q01DX009 (ip), vehicle: saline): 94 % of control and 119 % of control
T/C (dose: 0.39 mg/kg/injection, schedule: Q04DX003 (ip), vehicle: saline): 108 % of control
T/C (dose: 0.5 mg/kg/injection, schedule: Q01DX009 (ip), vehicle: saline): 101 % of control and 103 % of control
T/C (dose: 0.78 mg/kg/injection, schedule: Q04DX003 (ip), vehicle: saline): 96 % of control
T/C (dose: 1.0 mg/kg/injection, schedule: Q01DX009 (ip), vehicle: saline): 106 % of control and 118 % of control
T/C (dose: 1.56 mg/kg/injection, schedule: Q04DX003 (ip), vehicle: saline): 115 % of control
T/C (dose: 2.0 mg/kg/injection, schedule: Q01DX001 (ip), vehicle: saline): 108 % of control
T/C (dose: 2.0 mg/kg/injection, schedule: Q01DX009 (ip), vehicle: saline): 121 % of control and 124 % of control
T/C (dose: 4.0 mg/kg/injection, schedule: Q01DX001 (ip), vehicle: saline): 97 % of control
T/C (dose: 8.0 mg/kg/injection, schedule: Q01DX001 (ip), vehicle: saline): 87 % of control
T/C (dose: 12.5 mg/kg/injection, schedule: Q04DX003 (ip), vehicle: saline): 92 % of control

CS(=O)(=O)c1nc2[nH]c(=O)[nH]c(=O)c2cc1C#N
T/C (dose: 25.0 mg/kg/injection, schedule: Q01DX001 (ip), vehicle: Klucel (hydroxypropylcellulose) (HPC)): 93 % of control
T/C (dose: 50.0 mg/kg/injection, schedule: Q01DX001 (ip), vehicle: Klucel (hydroxypropylcellulose) (HPC)): 98 % of control
T/C (dose: 100.0 mg/kg/injection, schedule: Q01DX001 (ip), vehicle: Klucel (hydroxypropylcellulose) (HPC)): 97 % of control

CCOC(=O)NC(C)(C)CN(CCO)C(=O)OCC
T/C [1]: 100 % of control
T/C [2]: 105 % of control
T/C [3]: 97 % of control
T/C [4]: 102 % of control
T/C [5]: 97 % of control
T/C [6]: 93 % of control

CCCCN1c2ccccc2NP1(=S)c1ccccc1 (centres undefined)
T/C (dose: 100.0 mg/kg/injection, schedule: Q04DX002 (ip), vehicle: DMSO): 93 % of control
T/C (dose: 200.0 mg/kg/injection, schedule: Q04DX002 (ip), vehicle: DMSO): 101 % of control

Cc1cc(N=NC(=N)N)ccc1NN=C(N)N
T/C (dose: 37.5 mg/kg/injection, schedule: Q01DX Z (oral), vehicle: carboxymethylcellulose (CMC)): 115 % of control
T/C (dose: 75.0 mg/kg/injection, schedule: Q01DX Z (oral), vehicle: carboxymethylcellulose (CMC)): 100 % of control
T/C (dose: 150.0 mg/kg/injection, schedule: Q01DX Z (oral), vehicle: carboxymethylcellulose (CMC)): 96 % of control
T/C (dose: 300.0 mg/kg/injection, schedule: Q01DX Z (oral), vehicle: carboxymethylcellulose (CMC)): 102 % of control

CCN(CC)CCOC(=O)C(c1ccccc1)C1CCCCC1 (centres undefined)
T/C (dose: 6.25 mg/kg/injection, schedule: Q01DX009 (ip), vehicle: saline): 105 % of control
T/C (dose: 12.5 mg/kg/injection, schedule: Q01DX009 (ip), vehicle: saline): 95 % of control
T/C (dose: 25.0 mg/kg/injection, schedule: Q01DX009 (ip), vehicle: saline): 95 % of control
T/C (dose: 50.0 mg/kg/injection, schedule: Q01DX009 (ip), vehicle: saline): 103 % of control
T/C (dose: 100.0 mg/kg/injection, schedule: Q01DX009 (ip), vehicle: saline): 103 % of control

CCOC(=O)c1ccc(NC(=O)C2CC2)cc1
T/C [1]: 113 % of control
T/C [3]: 109 % of control
T/C [5]: 104 % of control

CC(C(=O)c1ccc(F)cc1)C(O)(C(F)(F)F)C(F)(F)F (centres undefined)
T/C [2]: 94 % of control
T/C [4]: 95 % of control
T/C [6]: 103 % of control

CC[n+]1ccc(Nc2ccc(/C=C/c3ccc4cc(Nc5cc[n+](CC)cc5)ccc4[n+]3CC)cc2)cc1
T/C (dose: 2.5 mg/kg/injection, schedule: Q01DX009 (ip), vehicle: saline): 112 % of control and 119 % of control and 120 % of control
T/C (dose: 5.0 mg/kg/injection, schedule: Q01DX009 (ip), vehicle: saline): 150 % of control
T/C (dose: 10.0 mg/kg/injection, schedule: Q01DX009 (ip), vehicle: saline): 182 % of control and 209 % of control
T/C (dose: 12.5 mg/kg/injection, schedule: Q01DX001 (ip), vehicle: saline): 100 % of control
T/C (dose: 25.0 mg/kg/injection, schedule: Q01DX001 (ip), vehicle: saline): 100 % of control
T/C (dose: 50.0 mg/kg/injection, schedule: Q01DX001 (ip), vehicle: saline): 112 % of control

CN(C)N=Nc1ccccc1CO
T/C (dose: 1.0 mg/kg/injection, schedule: Q01DX009 (ip), vehicle: other): 94 % of control
T/C (dose: 2.0 mg/kg/injection, schedule: Q01DX009 (ip), vehicle: other): 103 % of control
T/C (dose: 4.0 mg/kg/injection, schedule: Q01DX009 (ip), vehicle: other): 103 % of control
T/C (dose: 8.0 mg/kg/injection, schedule: Q01DX009 (ip), vehicle: other): 103 % of control
T/C (dose: 25.0 mg/kg/injection, schedule: Q04DX003 (ip), vehicle: other): 105 % of control
T/C (dose: 50.0 mg/kg/injection, schedule: Q04DX003 (ip), vehicle: other): 120 % of control

O=C(NS(=O)(=O)c1ccc(Cl)cc1)c1ccccc1
T/C (dose: 100.0 mg/kg/injection, schedule: Q01DX009 (ip), vehicle: saline with Tween-80): 94 % of control
T/C (dose: 100.0 mg/kg/injection, schedule: Q04DX003 (ip), vehicle: acetone): 104 % of control
T/C (dose: 200.0 mg/kg/injection, schedule: Q04DX003 (ip), vehicle: acetone): 107 % of control
T/C (dose: 400.0 mg/kg/injection, schedule: Q04DX003 (ip), vehicle: acetone): 93 % of control

C[N+](C)(C)CCCCCC[Si](C)(C)C
T/C (dose: 5.0 mg/kg/injection, schedule: Q01DX001 (ip), vehicle: saline): 110 % of control
T/C (dose: 10.0 mg/kg/injection, schedule: Q01DX001 (ip), vehicle: saline): 108 % of control
T/C (dose: 20.0 mg/kg/injection, schedule: Q01DX001 (ip), vehicle: saline): 104 % of control
T/C (dose: 40.0 mg/kg/injection, schedule: Q01DX001 (ip), vehicle: saline): 108 % of control

C/C(=N\NC(=S)Nc1cc(Cl)ccc1Cl)c1ccc(O)c(C)c1
T/C (dose: 12.5 mg/kg/injection, schedule: Q04DX002 (ip), vehicle: Klucel (hydroxypropylcellulose) (HPC)): 102 % of control
T/C (dose: 25.0 mg/kg/injection, schedule: Q04DX002 (ip), vehicle: Klucel (hydroxypropylcellulose) (HPC)): 102 % of control
T/C (dose: 50.0 mg/kg/injection, schedule: Q04DX002 (ip), vehicle: Klucel (hydroxypropylcellulose) (HPC)): 105 % of control

c1ccc2cc3c(cc2c1)oc1cc2ccccc2cc13
T/C [2]: 120 % of control
T/C [4]: 101 % of control
T/C [6]: 107 % of control

C#CC1(OC(=O)NS(=O)(=O)c2ccc(C)cc2)CCCCC1
T/C (dose: 100.0 mg/kg/injection, schedule: Q01DX001 (ip), vehicle: saline with Tween-80): 97 % of control
T/C (dose: 100.0 mg/kg/injection, schedule: Q04DX003 (ip), vehicle: saline with Tween-80): 103 % of control
T/C (dose: 200.0 mg/kg/injection, schedule: Q01DX001 (ip), vehicle: saline with Tween-80): 101 % of control
T/C (dose: 200.0 mg/kg/injection, schedule: Q04DX003 (ip), vehicle: saline with Tween-80): 95 % of control
T/C (dose: 400.0 mg/kg/injection, schedule: Q01DX001 (ip), vehicle: saline with Tween-80): 103 % of control
T/C (dose: 400.0 mg/kg/injection, schedule: Q04DX003 (ip), vehicle: saline with Tween-80): 101 % of control

CC(C)n1cc(C(=O)c2ccccc2)cc1-c1ccccc1
T/C (dose: 100.0 mg/kg/injection, schedule: Q04DX002 (ip), vehicle: saline with Tween-80): 93 % of control
T/C (dose: 200.0 mg/kg/injection, schedule: Q04DX002 (ip), vehicle: saline with Tween-80): 89 % of control
T/C (dose: 400.0 mg/kg/injection, schedule: Q04DX002 (ip), vehicle: saline with Tween-80): 97 % of control

COc1ccc2c(c1)C(=O)C1CC3(CCC21)OCCO3 (centres undefined)
T/C [1]: 101 % of control
T/C [2]: 109 % of control
T/C [3]: 97 % of control
T/C [4]: 93 % of control
T/C [5]: 95 % of control
T/C [6]: 100 % of control
